Assay results reported in publication PMC2918917 (New journal of chemistry = Nouveau journal de chimie, 2010).
Where two headings read alike, the source gives them in different places. Values belong to the compound of their own block, whether it stands above or below them.

Legend:
[1] = system: cultured cells; settings: cited from earlier work
[2] = biological target: T1, human DcpS (Homo sapiens, UniProt Q96C86); assay: hDcpS assay: enzymatic hydrolysis of cap analogs monitored by RP HPLC; settings: positive control; cleavage to m^7GMP and GDP; amount of DcpS adjusted
T1 sequence (Q96C86 1-337): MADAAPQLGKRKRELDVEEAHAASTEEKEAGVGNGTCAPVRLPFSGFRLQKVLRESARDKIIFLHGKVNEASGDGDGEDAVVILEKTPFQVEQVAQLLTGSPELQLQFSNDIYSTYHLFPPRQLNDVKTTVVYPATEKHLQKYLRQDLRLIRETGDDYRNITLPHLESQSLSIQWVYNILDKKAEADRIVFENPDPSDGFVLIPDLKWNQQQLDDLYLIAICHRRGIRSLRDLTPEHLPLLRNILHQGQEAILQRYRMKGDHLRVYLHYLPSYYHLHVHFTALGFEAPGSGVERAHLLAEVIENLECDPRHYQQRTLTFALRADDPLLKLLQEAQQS

[3] = system: rabbit reticulocyte lysate (RRL) system; settings: cited from earlier work
[4] = system: microRNA-mediated translational repression; settings: cited from earlier work; for enhancement of microRNA-mediated translational repression: Drosophila melanogaster embryos extract
[5] = biological target: hDcp2 (Homo sapiens, UniProt Q8IU60); assay: In vitro decapping of capped mRNA by hDcp2; assay type: biochemical; settings: mRNA capped with D1 plus D2 mixture; preliminary results, unpublished work [21]
[6] = system: cultured mouse mammary cells; settings: cited from earlier work

Compound: m2^7,3'-OGppCH2pG
- half-life of capped mRNA transfected into cultured cells [1]: prolonged half-life
- translation of capped mRNA versus regular ARCA [1]: translated even less efficiently

Compound: Cn1c[n+]([C@@H]2O[C@H](COP(=O)(O)OP(=O)([O-])OP(=O)(O)OC[C@H]3O[C@@H](n4cnc5c(=O)[nH]c(N)nc54)[C@H](O)[C@@H]3O)[C@@H](O)[C@H]2O)c2nc(N)[nH]c(=O)c21 [m^7GpppG]
- time to complete cleavage by DcpS [2]: less than 15 min

Compound: COC1C(COP(=O)([O-])OP(=O)(O)OP(=O)(O)OP(=O)(O)OP(=O)(O)OCC2OC(n3cnc4c(=O)[nH]c(N)nc43)C(O)C2O)OC(n2c[n+](C)c3c(=O)[nH]c(N)nc32)C1O (stereo not drawn) [m2^7,3'-OGp5G]
- translation efficiency of mRNA capped with pentaphosphate analog [3]: not effective in promoting translation

Compound: C[n+]1cn(C2OC(COP(=O)([O-])OP(=O)(O)OP(=O)(O)OP(=O)(O)OP(=O)(O)OP(=O)(O)OCC3OC(n4cnc5c(=O)[nH]c(N)nc54)C(O)C3O)C(O)C2O)c2nc(N)[nH]c(=O)c21 (stereo not drawn) [m^7Gp6G]
- enhancement of microRNA-mediated translational repression [4]: ~ 2 fold
- effect on general cap-dependent translation [4]: neutral

Compound: COC1C(O)C(COP(=O)(O)OP(=O)(O)OP(O)(=S)OCC2OC(n3cnc4c(=O)[nH]c(N)nc43)C(O)C2O)OC1n1c[n+](C)c2c(=O)[nH]c(N)nc21 (stereo not drawn) [m2^7,2’-OGpppSG (D2)]
- enhancement of microRNA-mediated translational repression [4]: 2 fold
- enhancement of microRNA-mediated translational repression ([4]; listed as m2^7,2'-OGpppSG (D2)): ~ 2 fold
- effect on general cap-dependent translation [4]: no change
- effect on general cap-dependent translation ([4]; listed as m2^7,2'-OGpppSG (D2)): neutral

- susceptibility of capped mRNA to in vitro decapping by hDcp2 [5]: resistant
Compound: P1-(7,2'-O-dimethylguanosin-5'-y l ) P4-guanosin-5'-yl (3-thiotetraphosphate) [compound 2]

Compound: CO[C@@H]1[C@H](O)[C@@H](COP(=O)(O)OP(O)(=S)OP(=O)(O)OC[C@H]2O[C@@H](n3cnc4c(=O)[nH]c(N)nc43)[C@H](O)[C@@H]2O)O[C@H]1n1c[n+](C)c2c(=O)[nH]c(N)nc21 (stereo partly drawn) [m2^7,2’-OGppSpG (D2)]
- translation efficiency relative to m2^7,2’-OGpppG-capped mRNA [6]: 2.4
